# Experimental data from ChEMBL document CHEMBL5728485, “Biaryloxy derivatives as TTX-S blockers” (2021).
# Target: Sodium channel protein type 9 subunit alpha (Homo sapiens, UniProt Q15858)
# Assay: EFS-FRET Assay: This screen is used to determine the effects of compounds on human Nav1.7 channels, utilizing electrical field stimulation (EFS) system in 96-well plate format on FDSS (Hamamatsu Photonics) platform. The changes of membrane potential are monitored with FRET dye pair, DiSBAC2(3) and PTS 18.
# Sodium channel protein type 9 subunit alpha, sequence (Q15858 whole entry): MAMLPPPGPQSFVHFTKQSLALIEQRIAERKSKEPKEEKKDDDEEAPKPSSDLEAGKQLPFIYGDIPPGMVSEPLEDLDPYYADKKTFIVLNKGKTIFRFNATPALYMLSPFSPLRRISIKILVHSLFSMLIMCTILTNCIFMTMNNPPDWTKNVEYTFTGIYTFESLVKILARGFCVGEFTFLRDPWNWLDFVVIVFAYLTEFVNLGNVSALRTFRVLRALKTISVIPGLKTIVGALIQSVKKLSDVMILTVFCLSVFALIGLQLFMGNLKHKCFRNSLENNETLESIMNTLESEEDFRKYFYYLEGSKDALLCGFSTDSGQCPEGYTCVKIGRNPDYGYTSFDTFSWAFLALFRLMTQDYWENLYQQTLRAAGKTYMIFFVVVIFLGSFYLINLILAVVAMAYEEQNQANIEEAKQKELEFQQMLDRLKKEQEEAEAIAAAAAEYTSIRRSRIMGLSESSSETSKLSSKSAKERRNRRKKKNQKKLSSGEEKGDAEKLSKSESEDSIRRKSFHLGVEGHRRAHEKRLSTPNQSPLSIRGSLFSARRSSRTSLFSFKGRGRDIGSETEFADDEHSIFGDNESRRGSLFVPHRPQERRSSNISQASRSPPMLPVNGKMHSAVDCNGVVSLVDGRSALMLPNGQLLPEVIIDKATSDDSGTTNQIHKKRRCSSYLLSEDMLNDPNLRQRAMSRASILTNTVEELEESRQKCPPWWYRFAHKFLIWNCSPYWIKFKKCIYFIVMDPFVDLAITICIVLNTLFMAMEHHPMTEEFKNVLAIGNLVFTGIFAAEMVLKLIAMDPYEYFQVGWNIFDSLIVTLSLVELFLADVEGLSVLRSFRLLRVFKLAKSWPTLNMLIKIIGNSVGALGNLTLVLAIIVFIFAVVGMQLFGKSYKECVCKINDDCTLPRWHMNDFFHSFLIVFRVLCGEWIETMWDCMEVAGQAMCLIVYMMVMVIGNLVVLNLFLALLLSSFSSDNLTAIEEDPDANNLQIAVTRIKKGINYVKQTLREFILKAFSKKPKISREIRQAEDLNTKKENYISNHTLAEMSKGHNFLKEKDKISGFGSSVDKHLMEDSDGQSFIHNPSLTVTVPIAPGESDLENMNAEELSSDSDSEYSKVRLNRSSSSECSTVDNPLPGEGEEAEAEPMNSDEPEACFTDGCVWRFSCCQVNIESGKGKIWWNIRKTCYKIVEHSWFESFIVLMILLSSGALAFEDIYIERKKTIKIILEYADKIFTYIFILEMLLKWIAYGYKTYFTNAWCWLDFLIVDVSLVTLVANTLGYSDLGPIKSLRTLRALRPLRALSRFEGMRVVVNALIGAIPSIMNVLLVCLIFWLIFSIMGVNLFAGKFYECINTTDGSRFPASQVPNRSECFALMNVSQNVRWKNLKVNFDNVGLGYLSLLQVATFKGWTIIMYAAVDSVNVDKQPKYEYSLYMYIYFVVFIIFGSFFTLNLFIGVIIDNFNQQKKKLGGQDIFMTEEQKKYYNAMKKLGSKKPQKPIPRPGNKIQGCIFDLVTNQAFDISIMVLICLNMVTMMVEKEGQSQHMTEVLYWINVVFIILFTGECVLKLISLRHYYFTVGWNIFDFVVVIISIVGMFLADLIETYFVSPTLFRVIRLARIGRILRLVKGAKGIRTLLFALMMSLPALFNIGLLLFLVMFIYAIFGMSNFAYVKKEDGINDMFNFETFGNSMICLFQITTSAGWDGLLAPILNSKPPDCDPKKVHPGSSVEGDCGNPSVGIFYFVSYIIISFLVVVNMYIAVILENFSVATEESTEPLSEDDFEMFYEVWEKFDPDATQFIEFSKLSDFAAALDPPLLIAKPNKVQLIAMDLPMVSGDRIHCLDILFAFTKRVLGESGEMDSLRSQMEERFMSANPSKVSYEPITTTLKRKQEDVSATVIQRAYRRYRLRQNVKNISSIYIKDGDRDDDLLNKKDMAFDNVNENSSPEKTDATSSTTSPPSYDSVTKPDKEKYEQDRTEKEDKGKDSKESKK
row,IC50,SMILES
1,< 500 nM,CS(=O)(=O)NC(=O)c1ccc(COc2cccc(-c3ccc(OCC4CC4)nc3)c2F)cc1
2,< 500 nM,CS(=O)(=O)NC(=O)c1ccc(COc2cccc(-c3cccnc3OCC3CC3)c2)cc1
3,< 500 nM,CS(=O)(=O)NC(=O)c1ccc(COc2cccc(-c3ccc(OCC4CC4)nc3)c2)c(C#N)c1
4,< 500 nM,CN(CC1CC1)c1cc(-c2cccc(OCc3ccc(C(=O)NS(C)(=O)=O)cc3F)c2)ccn1
5,< 500 nM,CS(=O)(=O)NC(=O)c1ccc(COc2cc(F)cc(-c3ncc(OCC4CCC4)cn3)c2)cc1
6,< 500 nM,CS(=O)(=O)NC(=O)c1ccc(COc2cccc(-c3ncc(OCC4CC4)cc3F)c2)cc1
7,< 500 nM,O=C(NS(=O)(=O)C(F)(F)F)c1ccc(COc2cccc(-c3ccc(OCC4CC4)nc3)c2)cc1
8,< 500 nM,Cc1cc(OCC2CCC2)cnc1-c1cccc(OCc2ccc(C(=O)NS(C)(=O)=O)cc2F)c1
9,< 500 nM,CS(=O)(=O)NC(=O)c1cc(OC(F)F)c(COc2cccc(-c3ccc(OCC4CC4)nc3)c2)cc1F
10,< 500 nM,CS(=O)(=O)NC(=O)c1ccc(COc2cccc(-c3cncc(OCC4CC4)n3)c2)cc1
11,< 500 nM,O=C(NS(=O)(=O)C1CC1)c1ccc(COc2cccc(-c3ncc(OCC4CC4)cn3)c2)cc1
12,< 500 nM,O=C(NS(=O)(=O)C1CC1)c1ccc(COc2cccc(-c3ccc(OCC4CC4)nc3)c2)c(F)c1
13,< 500 nM,Cc1c(OCC2CC2)ccnc1-c1cccc(OCc2ccc(C(=O)NS(C)(=O)=O)cc2F)c1
14,< 500 nM,Cc1cc(OCC2CC2)cnc1-c1cc(F)cc(OCc2ccc(C(=O)NS(C)(=O)=O)cc2)c1
15,< 500 nM,COCCOc1cc(OCC2CC2)cc(-c2cc(F)cc(OCc3ccc(C(=O)NS(C)(=O)=O)cc3F)c2)c1
16,< 500 nM,CS(=O)(=O)NC(=O)c1ccc(COc2cc(-c3ccccc3)cc(-c3ccc(OCC4CC4)nc3)c2)cc1
17,< 500 nM,CS(=O)(=O)NC(=O)c1ccc(COc2cccc(-c3ccc(OCC4CC(F)(F)C4)nc3)c2)cc1
18,< 500 nM,Cc1cc(OCC2CC2)ncc1-c1cccc(OCc2ccc(C(=O)NS(C)(=O)=O)cc2F)c1
19,< 500 nM,CS(=O)(=O)NC(=O)c1ccc(COc2cc(-c3cncnc3)cc(-c3ccc(OCC4CC4)nc3)c2)cc1
20,< 500 nM,CS(=O)(=O)NC(=O)c1ccc(COc2cccc(-c3cnc(OCC4CC4)cn3)c2)cc1
21,< 500 nM,CS(=O)(=O)NC(=O)c1ccc(COc2cccc(-c3ccnc(OCC4CC4)c3)c2)c(F)c1
22,< 500 nM,CS(=O)(=O)NC(=O)c1ccc(COc2cc(F)cc(-c3ccc(OCC4CC4)nc3)c2)cc1
23,< 500 nM,CS(=O)(=O)NC(=O)c1ccc(COc2cc(F)cc(-c3cnc(OCC4CC4)nc3)c2)cc1
24,< 500 nM,CS(=O)(=O)NC(=O)c1ccc(COc2cc(F)cc(-c3ccnc(OCC4CC4)c3)c2)cc1

row,IC50,SMILES
1,< 500 nM,Cc1nc(OCC2CC2)ccc1-c1cccc(OCc2ccc(C(=O)NS(C)(=O)=O)cc2F)c1
2,< 500 nM,CS(=O)(=O)NC(=O)c1cc(Cl)c(COc2cccc(-c3ccc(OCC4CC4)nc3)c2)cc1F
3,< 500 nM,CS(=O)(=O)NC(=O)c1ccc(COc2cc(F)cc(-c3ncc(OCC4CC4)cc3F)c2)cc1
4,< 500 nM,CS(=O)(=O)NC(=O)c1ccc(COc2cc(Cl)cc(-c3ccc(OCC4CC4)nc3)c2)cc1
5,< 500 nM,O=C(NS(=O)(=O)CC1CC1)c1ccc(COc2cc(F)cc(-c3ccc(OCC4CC4)nc3)c2)cc1
6,< 500 nM,Cc1c(-c2cc(OCc3ccc(C(=O)NS(C)(=O)=O)cc3F)ccc2F)ccnc1OCC1CC1
7,< 500 nM,O=C(NS(=O)(=O)C1CC1)c1ccc(COc2ccc(F)c(-c3ccc(OCC4CC4)nc3)c2)c(F)c1
8,< 500 nM,CS(=O)(=O)NC(=O)c1ccc(COc2cc(F)cc(-c3cnc(OCC4CCC4)c(CO)c3)c2)cc1
9,< 500 nM,CS(=O)(=O)NC(=O)c1ccc(COc2cc(F)cc(-c3cccc(OCC4CC4)n3)c2)cc1
10,< 500 nM,Cc1cc(-c2cccc(OCc3ccc(C(=O)NS(C)(=O)=O)cc3F)c2)cnc1OCC1CC1
11,< 500 nM,CS(=O)(=O)NC(=O)c1ccc(COc2cccc(-c3cnc(OCC4CC4)cn3)c2)c(F)c1
12,< 500 nM,CS(=O)(=O)NC(=O)c1cc(F)c(COc2cc(F)cc(-c3ccc(OCC4CC4)nc3)c2)cc1F
13,< 500 nM,CS(=O)(=O)NC(=O)c1ccc(COc2cccc(-c3ccc(OCC4CC4)cn3)c2)c(F)c1
14,< 500 nM,CNC(=O)c1cc(-c2cccc(OCc3ccc(C(=O)NS(C)(=O)=O)cc3F)c2)ccc1OCC1CC1
15,< 500 nM,Cc1ccc(OCc2ccc(C(=O)NS(C)(=O)=O)cc2F)cc1-c1ccc(OCC2CC2)nc1
16,< 500 nM,CS(=O)(=O)NC(=O)c1ccc(COc2cccc(-c3cc(OCC4CC4)ccn3)c2)cc1
17,< 500 nM,CS(=O)(=O)NC(=O)c1ccc(COc2ccc(Cl)c(-c3ccc(OCC4CC4)nc3)c2)cc1
18,< 500 nM,CS(=O)(=O)NC(=O)c1ccc(COc2cccc(-c3ccc(OCC4CCC4)nc3CO)c2)c(F)c1
19,< 500 nM,CS(=O)(=O)NC(=O)c1ccc(COc2cccc(-c3ccc(OCC4CC4)nc3)c2)c(Cl)c1
20,< 500 nM,CC(C)(C)OC(=O)N1CCC(COc2ccc(-c3cccc(OCc4ccc(C(=O)NS(C)(=O)=O)cc4)c3)cn2)CC1
21,< 500 nM,Cc1nc(OCC2CC2)ncc1-c1cccc(OCc2ccc(C(=O)NS(C)(=O)=O)cc2F)c1
22,< 500 nM,CS(=O)(=O)NC(=O)c1ccc(COc2cc(F)cc(-c3ncc(OCC4CC4)cn3)c2)cc1
23,< 500 nM,CCOC(=O)N1CCC(COc2ccc(-c3cccc(OCc4ccc(C(=O)NS(C)(=O)=O)cc4)c3)cn2)CC1
24,< 500 nM,CS(=O)(=O)NC(=O)c1ccc(COc2cccc(-c3ccc(OCC4CC4)nc3)c2)cc1F

# The remaining lines, values behind:
row,SMILES,IC50
1,N#Cc1cc(C(=O)NS(=O)(=O)C2CC2)ccc1COc1cccc(-c2ccc(OCC3CC3)nc2)c1,< 500 nM
2,CS(=O)(=O)NC(=O)c1ccc(COc2cccc(-c3cncc(OCC4CC4)n3)c2)c(F)c1,< 500 nM
3,CS(=O)(=O)NC(=O)c1ccc(COc2cc(F)cc(-c3cnc(OCC4CC4)c(Cl)c3)c2)c(F)c1,< 500 nM
4,CS(=O)(=O)NC(=O)c1ccc(COc2cccc(-c3ccc(OCC4CCC4)nc3)c2)cc1,< 500 nM
5,CS(=O)(=O)NC(=O)c1ccc(COc2cc(F)cc(-c3ccc(OCC4CCOC4)nc3)c2)cc1 (configuration not stated),< 500 nM
6,CS(=O)(=O)NC(=O)c1ccc(COc2cc(-c3ccc(OCC4CC4)nc3)ccc2F)cc1,< 500 nM
7,CS(=O)(=O)NC(=O)c1ccc(COc2cccc(-c3ncc(OCC4CC4)cn3)c2)c(F)c1,< 500 nM
8,CS(=O)(=O)NC(=O)c1ccc(COc2cc(C#N)cc(-c3ccc(OCC4CC4)nc3)c2)cc1,< 500 nM
9,Cc1cc(OCc2ccc(C(=O)NS(C)(=O)=O)cc2F)cc(-c2ccc(OCC3CC3)nc2)c1,< 500 nM
10,O=C(NS(=O)(=O)C1CC1)c1ccc(COc2cccc(-c3cnc(OCC4CC4)cn3)c2)cc1,< 500 nM
11,Cc1c(-c2cccc(OCc3ccc(C(=O)NS(C)(=O)=O)cc3F)c2)ccnc1OCC1CC1,< 500 nM
12,CS(=O)(=O)NC(=O)c1ccc(COc2ccc(F)c(-c3cnc(OCC4CC4)cn3)c2)c(F)c1,< 500 nM
13,CS(=O)(=O)NC(=O)c1ccc(COc2cc(F)cc(-c3ccc(OCC4CC4)nc3)c2)nc1,< 500 nM
14,O=C(NS(=O)(=O)c1cccs1)c1ccc(COc2cccc(-c3ccc(OCC4CC4)nc3)c2)cc1,< 500 nM
15,CS(=O)(=O)NC(=O)c1ccc(COc2cc(F)cc(-c3cc(OCCO)cc(OCC4CC4)c3)c2)c(F)c1,< 500 nM
16,CS(=O)(=O)NC(=O)c1ccc(COc2cccc(-c3ccc(OCC4CC4)nc3)n2)cc1,< 500 nM
17,O=C(NS(=O)(=O)C1CC1)c1ccc(COc2cccc(-c3ccc(OCC4CC4)nc3)c2)cc1,< 500 nM
18,CS(=O)(=O)NC(=O)c1ccc(COc2cccc(-c3ccn(CC4CC4)n3)c2)c(F)c1,< 500 nM
19,O=C(NS(=O)(=O)C1CC1)c1ccc(COc2ccc(F)c(-c3ccc(OCC4CC4)nc3)c2)cc1,< 500 nM
20,CS(=O)(=O)NC(=O)c1ccc(COc2cccc(-c3cc(OCC4CC4)ccn3)c2)c(F)c1,< 500 nM

row,SMILES,IC50
1,Cc1cc(OCc2ccc(C(=O)NS(=O)(=O)C3CC3)cc2F)cc(-c2ccc(OCC3CC3)nc2)c1,< 500 nM
2,Cc1c(OCC2CC2)ncnc1-c1cccc(OCc2ccc(C(=O)NS(C)(=O)=O)cc2)c1,< 500 nM
3,Cc1cc(OCC2CC2)cnc1-c1cccc(OCc2ccc(C(=O)NS(C)(=O)=O)cc2F)c1,< 500 nM
4,CS(=O)(=O)NC(=O)c1ccc(COc2cc(F)cc(-c3ccc(OCC4CC4)nc3)c2)c(F)c1,< 500 nM
5,Cc1c(OCC2CC2)ccnc1-c1cc(F)cc(OCc2ccc(C(=O)NS(C)(=O)=O)cc2)c1,< 500 nM
6,CS(=O)(=O)NC(=O)c1ccc(COc2cc(F)cc(-c3ccc(OCC4CC4)cn3)c2)cc1,< 500 nM
7,Cc1cc(OCC2CC2)ncc1-c1cc(F)cc(OCc2ccc(C(=O)NS(C)(=O)=O)cc2)c1,< 500 nM
8,CN(C)C(=O)COc1cc(OCC2CC2)cc(-c2cc(F)cc(OCc3ccc(C(=O)NS(C)(=O)=O)cc3F)c2)c1,< 500 nM
9,CS(=O)(=O)NC(=O)c1ccc(COc2cccc(-c3ccc(OCC4CCC4)nc3CO)c2)cc1,< 500 nM
10,Cc1nc(OCC2CC2)ccc1-c1cc(OCc2ccc(C(=O)NS(C)(=O)=O)cc2F)ccc1F,< 500 nM
11,O=C(NS(=O)(=O)c1cccs1)c1ccc(COc2cc(F)cc(-c3ccc(OCC4CC4)nc3)c2)cc1,< 500 nM
12,Cc1c(-c2cc(F)cc(OCc3ccc(C(=O)NS(C)(=O)=O)cc3)c2)ccnc1OCC1CC1,< 500 nM
13,O=C(NS(=O)(=O)c1cccs1)c1ccc(COc2cccc(-c3ccc(OCC4CC4)nc3)c2)c(F)c1,< 500 nM
14,CS(=O)(=O)NC(=O)c1ccc(COc2cc(-c3ccc(OCC4CC4)nc3)cc(C3CC3)c2)cc1,< 500 nM
15,Cc1nc(OCC2CC2)ccc1-c1cc(F)cc(OCc2ccc(C(=O)NS(C)(=O)=O)cc2)c1,< 500 nM
16,CC(C)S(=O)(=O)NC(=O)c1ccc(COc2cccc(-c3ccc(OCC4CC4)nc3)c2)c(F)c1,< 500 nM
17,O=C(NS(=O)(=O)CC1CC1)c1ccc(COc2cccc(-c3ccc(OCC4CC4)nc3)c2)c(F)c1,< 500 nM
18,CS(=O)(=O)NC(=O)c1cc(C2CC2)c(COc2cccc(-c3ccc(OCC4CC4)nc3)c2)cc1F,< 500 nM
19,COC1CN(C(=O)c2cc(OCC3CC3)cc(-c3cc(F)cc(OCc4ccc(C(=O)NS(C)(=O)=O)cc4F)c3)c2)C1,< 500 nM
